We go through three compounds from patent publication US20220009920A1 (GB005, Inc., priority 2020, published 2022).

Common to all, as to assay: Large panel kinase profiling
Common to all, as to type: biochemical
Holding throughout (details): 1 μM test article, 1 mM ATP

The target in one experiment is T1, CDK2/E1 (Homo sapiens, UniProt P24941).
T1 construct: AssayQuant Technologies, Inc. (ran the panel)
The gist of the method:
(§1)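 Fluorescence intensity (Ex 360 nm, Em 485 nm) was monitored continuously, once per minute, in PhosphoSens CSox-Sensor kinase reactions held at 30° C. Compound was present at 1 μM and ATP at 1 mM.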

A further experiment has as its target T2, CDK3/E1 (Homo sapiens, UniProt Q00526).
T2 construct: AssayQuant Technologies, Inc. (ran the panel)
The gist of the method:
as §1

The target in a further experiment is T3, CLK4 (Homo sapiens, UniProt Q9HAZ1).
T3 construct: AssayQuant Technologies, Inc. (service laboratory)
T3 sequence (Q9HAZ1 whole entry, species assumed): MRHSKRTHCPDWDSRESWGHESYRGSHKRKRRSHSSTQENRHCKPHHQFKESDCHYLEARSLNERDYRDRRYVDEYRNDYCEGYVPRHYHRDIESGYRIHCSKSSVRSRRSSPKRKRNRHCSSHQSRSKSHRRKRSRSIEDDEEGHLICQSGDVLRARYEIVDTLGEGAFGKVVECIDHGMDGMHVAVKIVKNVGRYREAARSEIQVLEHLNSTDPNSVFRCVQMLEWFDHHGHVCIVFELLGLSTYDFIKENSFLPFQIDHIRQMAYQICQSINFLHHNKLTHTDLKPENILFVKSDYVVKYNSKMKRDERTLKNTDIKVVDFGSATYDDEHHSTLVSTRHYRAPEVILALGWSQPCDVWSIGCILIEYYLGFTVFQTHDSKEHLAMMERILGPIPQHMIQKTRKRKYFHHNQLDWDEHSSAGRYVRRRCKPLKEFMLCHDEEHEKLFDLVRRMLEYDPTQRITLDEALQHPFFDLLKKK
The gist of the method:
as §1

The target in a further experiment is T4, DAPK2 (Homo sapiens, UniProt Q9UIK4).
T4 construct: AssayQuant Technologies, Inc. (service laboratory)
T4 sequence (Q9UIK4 whole entry, species assumed): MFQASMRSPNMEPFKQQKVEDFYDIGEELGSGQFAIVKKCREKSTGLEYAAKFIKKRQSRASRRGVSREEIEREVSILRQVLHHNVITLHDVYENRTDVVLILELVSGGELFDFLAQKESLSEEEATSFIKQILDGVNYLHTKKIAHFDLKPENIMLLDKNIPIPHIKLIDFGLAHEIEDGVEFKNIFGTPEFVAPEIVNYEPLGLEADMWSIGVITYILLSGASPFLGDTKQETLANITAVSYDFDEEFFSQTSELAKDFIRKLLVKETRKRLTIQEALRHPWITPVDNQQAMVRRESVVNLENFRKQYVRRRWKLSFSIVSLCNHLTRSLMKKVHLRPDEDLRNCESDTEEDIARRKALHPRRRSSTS
The method, boiled down: as §1

The target in another experiment is T5, DDR1 (Homo sapiens, UniProt Q08345).
T5 construct: AssayQuant Technologies, Inc. (service laboratory)
T5 sequence (Q08345 19-913, species assumed): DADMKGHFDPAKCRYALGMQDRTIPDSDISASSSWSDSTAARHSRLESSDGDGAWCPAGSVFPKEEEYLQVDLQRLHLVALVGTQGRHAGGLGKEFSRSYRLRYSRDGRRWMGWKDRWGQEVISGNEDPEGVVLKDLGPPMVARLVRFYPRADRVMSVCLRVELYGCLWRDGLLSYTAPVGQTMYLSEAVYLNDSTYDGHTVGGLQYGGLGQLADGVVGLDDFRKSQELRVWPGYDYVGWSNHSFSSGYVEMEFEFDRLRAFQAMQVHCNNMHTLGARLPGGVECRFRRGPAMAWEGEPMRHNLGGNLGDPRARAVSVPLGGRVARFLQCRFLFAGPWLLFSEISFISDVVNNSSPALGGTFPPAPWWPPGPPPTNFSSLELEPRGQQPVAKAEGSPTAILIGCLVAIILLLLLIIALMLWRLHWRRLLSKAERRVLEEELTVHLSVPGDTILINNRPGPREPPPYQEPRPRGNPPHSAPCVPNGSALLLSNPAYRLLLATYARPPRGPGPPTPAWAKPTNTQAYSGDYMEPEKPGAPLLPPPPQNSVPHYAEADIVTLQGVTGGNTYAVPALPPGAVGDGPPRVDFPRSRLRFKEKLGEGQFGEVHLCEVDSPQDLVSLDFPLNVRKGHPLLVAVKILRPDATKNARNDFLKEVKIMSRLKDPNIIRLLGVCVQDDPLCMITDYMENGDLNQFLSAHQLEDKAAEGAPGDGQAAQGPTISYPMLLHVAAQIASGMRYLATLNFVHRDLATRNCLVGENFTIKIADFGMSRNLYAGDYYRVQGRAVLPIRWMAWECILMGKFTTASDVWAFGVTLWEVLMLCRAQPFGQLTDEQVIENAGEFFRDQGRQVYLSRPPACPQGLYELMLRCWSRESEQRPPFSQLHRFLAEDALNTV
The gist of the method:
as §1

For a further experiment, the target named is T6, MAP4K5/KSH1 (Homo sapiens, UniProt Q9Y4K4).
T6 construct: AssayQuant Technologies, Inc. (service provider)
T6 sequence (Q9Y4K4 whole entry): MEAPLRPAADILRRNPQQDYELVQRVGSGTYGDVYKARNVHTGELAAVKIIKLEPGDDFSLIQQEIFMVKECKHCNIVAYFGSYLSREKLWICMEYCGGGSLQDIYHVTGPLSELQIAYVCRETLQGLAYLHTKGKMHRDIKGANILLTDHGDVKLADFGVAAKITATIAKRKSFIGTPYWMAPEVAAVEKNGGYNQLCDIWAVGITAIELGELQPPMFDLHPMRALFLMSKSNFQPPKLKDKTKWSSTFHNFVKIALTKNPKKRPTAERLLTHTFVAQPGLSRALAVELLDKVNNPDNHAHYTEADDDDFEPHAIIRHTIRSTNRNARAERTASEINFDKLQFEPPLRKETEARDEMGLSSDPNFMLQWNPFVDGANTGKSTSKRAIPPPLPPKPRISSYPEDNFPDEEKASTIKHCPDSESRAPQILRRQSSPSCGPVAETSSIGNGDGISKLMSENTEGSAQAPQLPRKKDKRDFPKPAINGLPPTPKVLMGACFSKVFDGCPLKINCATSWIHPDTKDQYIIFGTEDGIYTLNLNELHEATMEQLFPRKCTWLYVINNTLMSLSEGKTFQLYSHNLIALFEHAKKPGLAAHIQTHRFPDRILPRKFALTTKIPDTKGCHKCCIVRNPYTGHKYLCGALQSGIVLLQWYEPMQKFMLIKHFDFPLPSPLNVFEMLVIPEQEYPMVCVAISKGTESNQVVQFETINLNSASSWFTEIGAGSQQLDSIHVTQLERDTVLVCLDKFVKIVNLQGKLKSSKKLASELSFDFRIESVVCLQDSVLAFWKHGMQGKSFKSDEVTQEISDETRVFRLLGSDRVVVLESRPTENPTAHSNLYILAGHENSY
The method, boiled down: as §1

The target of a further experiment is T7, MAPK1/ERK2 (Homo sapiens, UniProt P28482).
T7 construct: AssayQuant Technologies, Inc. (service provider)
T7 sequence (P28482 whole entry): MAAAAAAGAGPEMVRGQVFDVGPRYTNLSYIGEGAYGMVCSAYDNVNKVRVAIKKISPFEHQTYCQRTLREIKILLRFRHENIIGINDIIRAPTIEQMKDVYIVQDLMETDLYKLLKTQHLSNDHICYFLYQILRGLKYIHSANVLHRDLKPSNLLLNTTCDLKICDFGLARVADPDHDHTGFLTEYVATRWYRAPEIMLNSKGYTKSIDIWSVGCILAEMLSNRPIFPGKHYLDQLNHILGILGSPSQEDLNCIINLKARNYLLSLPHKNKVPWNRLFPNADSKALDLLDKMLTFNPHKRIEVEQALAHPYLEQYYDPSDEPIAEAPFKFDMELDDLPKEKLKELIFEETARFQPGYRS
The method, boiled down: as §1

A further experiment addresses T8, MAPK15/ERK7 (Homo sapiens, UniProt Q8TD08).
T8 construct: AssayQuant Technologies, Inc. (service provider)
T8 sequence (Q8TD08 1-544): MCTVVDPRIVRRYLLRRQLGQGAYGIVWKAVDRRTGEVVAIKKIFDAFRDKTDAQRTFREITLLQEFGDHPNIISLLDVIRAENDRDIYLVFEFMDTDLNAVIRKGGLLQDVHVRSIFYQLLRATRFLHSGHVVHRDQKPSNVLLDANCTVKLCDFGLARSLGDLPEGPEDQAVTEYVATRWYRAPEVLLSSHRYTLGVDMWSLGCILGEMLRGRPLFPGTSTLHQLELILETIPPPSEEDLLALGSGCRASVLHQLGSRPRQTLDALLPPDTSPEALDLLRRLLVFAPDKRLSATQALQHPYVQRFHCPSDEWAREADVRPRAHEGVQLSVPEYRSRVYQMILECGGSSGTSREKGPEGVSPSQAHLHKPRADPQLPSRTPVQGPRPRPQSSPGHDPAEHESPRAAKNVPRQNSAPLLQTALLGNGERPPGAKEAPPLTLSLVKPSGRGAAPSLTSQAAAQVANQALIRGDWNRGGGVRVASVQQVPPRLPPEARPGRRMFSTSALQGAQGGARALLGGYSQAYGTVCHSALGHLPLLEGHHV
The gist of the method: as §1

A further experiment deals with T9, MARK3 (Homo sapiens, UniProt P27448).
T9 construct: AssayQuant Technologies, Inc. (assay service)
T9 sequence (P27448 whole entry, species assumed): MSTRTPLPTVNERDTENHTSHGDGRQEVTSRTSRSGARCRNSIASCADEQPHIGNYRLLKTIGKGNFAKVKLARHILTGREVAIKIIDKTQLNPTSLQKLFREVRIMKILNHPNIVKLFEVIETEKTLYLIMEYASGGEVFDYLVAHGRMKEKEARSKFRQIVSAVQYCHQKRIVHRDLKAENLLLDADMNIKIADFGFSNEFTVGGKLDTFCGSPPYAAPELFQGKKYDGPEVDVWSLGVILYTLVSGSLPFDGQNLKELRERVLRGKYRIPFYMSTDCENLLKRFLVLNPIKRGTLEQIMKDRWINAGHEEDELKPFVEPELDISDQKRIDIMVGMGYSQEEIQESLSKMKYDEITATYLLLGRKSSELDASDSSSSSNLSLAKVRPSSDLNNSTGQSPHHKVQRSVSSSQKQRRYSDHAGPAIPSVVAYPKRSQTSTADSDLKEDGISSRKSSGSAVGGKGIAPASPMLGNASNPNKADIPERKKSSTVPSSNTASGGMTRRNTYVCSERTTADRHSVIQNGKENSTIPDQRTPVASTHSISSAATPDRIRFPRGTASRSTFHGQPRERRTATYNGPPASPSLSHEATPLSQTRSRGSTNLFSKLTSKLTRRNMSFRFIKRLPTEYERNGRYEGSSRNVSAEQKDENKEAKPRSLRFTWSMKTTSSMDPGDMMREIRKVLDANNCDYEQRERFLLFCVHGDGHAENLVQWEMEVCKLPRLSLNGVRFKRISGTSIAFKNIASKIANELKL
The method, boiled down:
as §1

The next experiment deals with T10, NEK3 (Homo sapiens, UniProt P51956).
T10 construct: AssayQuant Technologies, Inc. (assay service)
T10 sequence (P51956 1-506): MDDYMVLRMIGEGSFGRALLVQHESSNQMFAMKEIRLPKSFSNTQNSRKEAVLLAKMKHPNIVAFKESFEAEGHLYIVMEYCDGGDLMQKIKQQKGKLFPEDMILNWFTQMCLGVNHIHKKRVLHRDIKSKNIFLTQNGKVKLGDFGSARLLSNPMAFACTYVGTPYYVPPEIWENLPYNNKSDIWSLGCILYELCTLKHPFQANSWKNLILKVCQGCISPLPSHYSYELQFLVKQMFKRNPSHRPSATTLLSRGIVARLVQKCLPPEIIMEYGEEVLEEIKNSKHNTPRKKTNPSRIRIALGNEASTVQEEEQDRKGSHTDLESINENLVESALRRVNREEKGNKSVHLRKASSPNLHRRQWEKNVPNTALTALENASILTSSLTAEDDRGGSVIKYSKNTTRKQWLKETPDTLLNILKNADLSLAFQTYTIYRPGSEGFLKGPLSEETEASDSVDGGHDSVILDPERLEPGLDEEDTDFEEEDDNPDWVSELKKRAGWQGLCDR
The gist of the method: as §1

The next experiment has as its target T11, NTRK1/TRKA (Homo sapiens, UniProt P04629).
T11 construct: AssayQuant Technologies, Inc. (assay service)
The method, boiled down: as §1

The next experiment deals with T12, PDK1 (Homo sapiens, UniProt O15530).
T12 sequence (O15530 1-556): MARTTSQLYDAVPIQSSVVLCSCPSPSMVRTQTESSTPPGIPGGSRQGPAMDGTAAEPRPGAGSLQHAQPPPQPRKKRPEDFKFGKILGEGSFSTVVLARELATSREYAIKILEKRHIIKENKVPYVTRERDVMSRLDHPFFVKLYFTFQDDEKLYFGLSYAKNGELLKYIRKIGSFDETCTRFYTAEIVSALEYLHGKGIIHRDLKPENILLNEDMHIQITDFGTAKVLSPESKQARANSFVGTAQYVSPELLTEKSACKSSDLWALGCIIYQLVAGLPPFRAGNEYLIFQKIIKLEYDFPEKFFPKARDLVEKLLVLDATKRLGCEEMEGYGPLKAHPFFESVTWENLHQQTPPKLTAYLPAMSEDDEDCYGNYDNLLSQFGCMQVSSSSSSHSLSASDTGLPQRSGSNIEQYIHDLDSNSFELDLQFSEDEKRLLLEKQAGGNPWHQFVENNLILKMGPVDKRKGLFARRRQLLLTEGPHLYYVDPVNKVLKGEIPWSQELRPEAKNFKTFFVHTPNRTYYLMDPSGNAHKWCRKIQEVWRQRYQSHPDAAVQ
The gist of the method: as §1

T11 sequence (P04629 33-796): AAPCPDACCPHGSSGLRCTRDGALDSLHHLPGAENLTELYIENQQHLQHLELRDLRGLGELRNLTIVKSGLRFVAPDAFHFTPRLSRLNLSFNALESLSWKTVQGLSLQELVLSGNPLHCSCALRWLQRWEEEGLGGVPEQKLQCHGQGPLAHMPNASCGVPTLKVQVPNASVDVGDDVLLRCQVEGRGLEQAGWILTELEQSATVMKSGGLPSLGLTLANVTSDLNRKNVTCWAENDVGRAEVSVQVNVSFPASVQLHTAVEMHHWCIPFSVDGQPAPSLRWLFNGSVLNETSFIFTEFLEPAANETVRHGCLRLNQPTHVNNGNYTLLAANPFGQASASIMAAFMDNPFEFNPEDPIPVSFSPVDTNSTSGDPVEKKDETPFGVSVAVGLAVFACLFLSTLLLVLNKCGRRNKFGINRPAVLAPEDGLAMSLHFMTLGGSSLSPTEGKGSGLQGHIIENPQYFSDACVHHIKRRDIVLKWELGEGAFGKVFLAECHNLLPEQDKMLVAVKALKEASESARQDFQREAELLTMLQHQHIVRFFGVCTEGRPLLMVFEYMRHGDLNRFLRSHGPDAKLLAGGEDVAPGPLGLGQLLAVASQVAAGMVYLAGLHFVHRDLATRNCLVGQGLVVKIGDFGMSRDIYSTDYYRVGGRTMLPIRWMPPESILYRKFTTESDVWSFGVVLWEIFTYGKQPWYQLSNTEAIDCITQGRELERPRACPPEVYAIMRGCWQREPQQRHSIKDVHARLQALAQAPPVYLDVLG

With `C=CC(=O)N1CCC[C@@H](c2c(F)cc(C(N)=O)c3[nH]c4c(c23)CCC4)C1` [Compound 10-2, (S)-8-(1-acryloylpiperidin-3-yl)-7-fluoro-1,2,3,4-tetrahydrocyclo-penta[b]indole-5-carboxamide], the inhibition at 1 µM on CDK2/E1 is 7%; on CDK3/E1, -7.7%; against CLK4 it was 2.7%; against DAPK2, 13.9%; on DDR1, -41.1%; against MAP4K5/KSH1, -4.9%. Also, the inhibition at 1 µM against MAPK1/ERK2 was -8.8%; at MAPK15/ERK7, -2%; against MARK3 it was -90.5%; on NEK3, -5%; against NTRK1/TRKA, 21.6%; on PDK1, -28.3%.

For `C=CC(=O)N1CCCC(c2c(F)cc(C(N)=O)c3[nH]c4c(c23)CCCCC4)C1` (single isomer, unassigned) [Compound 5-6], the inhibition at 1 µM against CDK2/E1 was -7.3%; against CDK3/E1 it was -15.3%; on CLK4 it was 12.3%; on DAPK2 it was -19.1%; against DDR1 it was 1.4%; at MAP4K5/KSH1, -1.1%. Further, the inhibition at 1 µM was -4.4% at MAPK1/ERK2; -3.4% at MAPK15/ERK7; 1.6% on MARK3; -21.2% against NEK3; -5% on NTRK1/TRKA; 22.8% against PDK1.

On to `C=CC(=O)N1CCC[C@@H](c2c(F)cc(C(N)=O)c3[nH]c4c(c23)CC2(CC4)CC2)C1` [Compound 6-2, (S)-5-(1-acryloylpiperidin-3-yl)-6-fluoro-1,2,4,9-tetrahydrospiro[carbazole-3,1′-cyclopropane]-8-carboxamide], for which the inhibition at 1 µM against CDK2/E1 is -12.9%; on CDK3/E1 it was 13.7%; against CLK4 it was 6.5%; against DAPK2, 13.4%; against DDR1, 24.5%; against MAP4K5/KSH1 it was 4.1%. The inhibition at 1 µM against MAPK1/ERK2 was -3.8%; at MAPK15/ERK7, 15.3%; on MARK3, -10.6%; at NEK3 it was -8.1%; against NTRK1/TRKA, 19.6%; at PDK1, -7.8%.

Usually inhibition stands for the change of the read-out against control, counted positive when it falls.
